Experiment [1] has as its target T1, hCB2 receptors (Homo sapiens, UniProt P34972).
T1 construct: expressed in transfected cells
As to the kind of experiment: [35S]GTPγS binding (G-protein activity), CHO-hCB2 membranes. Type of experiment: biochemical. The note with it: 10 μM. As to the method: (§1) CHO-hCB1, CHO-hCB2 and CHO-hMOR cells were homogenized individually with 10 complete strokes utilizing a 7ml Dounce glass homogenizer in an ice-cold buffer containing 50 mM HEPES pH 7.4, 3 mM MgCl2, and 1 mM EDTA as described previously. The homogenized samples were then centrifuged at 40,000 × g for 10 min at 4°C. Supernatants were discarded; the pellets re-suspended in the buffer, homogenized again, and centrifuged similarly twice more. After the final centrifugation step, supernatants were discarded and pellets were re-suspended in ice-cold 50 mM HEPES, pH 7.4 to achieve an approximate protein concentration of 10 mg/ml. Membrane homogenates were divided into aliquots and stored at −80°C for future use. A small aliquot of each membrane preparation was removed prior to freezing and the protein concentration was determined using BCA Protein Assay (Thermo Fisher Scientific, Waltham, MA).
The GTPγS binding assay to measure G-protein activation was performed as previously described. Briefly, in a total volume of 1 ml, 25 μg of CHO-hCB2, 50 μg of CHO-hCB1-Rx or 50 μg of CHO-hMOR membranes homogenates were added to each reaction mixture containing 0.1 nM [^35S]GTPγS, 20 mM HEPES, 10 mM MgCl2, 100 mM NaCl, 10 μM GDP, 0.1% bovine serum albumin and the indicated concentrations of ligand to be examined. After mixing, reaction mixtures were incubated at 30°C for 30 min. […] Nonspecific binding was defined by the amount of radioactivity remaining in the presence of 10 μM non-radiolabeled GTPγS. […] Four ml of scintiverse scintillation fluid (Fisher Scientific, Waltham, MA) was added to the filters and the amount of radioactivity was quantified 24 hr later utilizing liquid scintillation spectrophotometry.
Data presented are expressed as mean ± standard error of the mean (S.E.M.) for a minimum of three experiments, each performed in triplicate. […] To compare three or more groups, statistical significance of the data was determined by a one-way ANOVA, followed by post hoc comparisons using a Tukey's or Dunnett's test. […]

The target in experiment [2] is T1, hCB2 receptors. Kind of experiment: Forskolin-stimulated intracellular [3H]cAMP in intact CHO-hCB2 cells. It counts as cell-based. The note with it: values only approximate; for EMAX, intracellular [3H]cAMP: forskolin-stimulated cAMP; for EC50: increase of forskolin-stimulated cAMP. As to the method: CHO-hCB1, CHO-hCB2, or CHO-hMOR cells were plated separately in normal culture media into 24-well plates at a density of 6 × 10^6 cells/plate and incubated overnight at 37°C in 5% CO2. As previously described, the following day culture media was removed from each well and replaced with 500 μl pre-incubation mixture containing either HAM’s F-12 K (CHO-hCB1) or DMEM (CHO-hCB2 and CHO-hMOR) with 0.9% NaCl, 500 μM 3-isobutyl-1-methylxathine (IBMX) and 2 μCi/well [^3H]adenine. Cells were incubated for 3–5 hr at 37°C. The pre-incubation mix was removed and indicated concentrations of drugs were added to the individual wells for 15 min at 37°C in a Krebs-Ringer-HEPES solution (10 mM HEPES, 110mM NaCl, 25mM Glucose, 55mM Sucrose, 5mM KCl, 1mM MgCl2, 1.8 mM CaCl2, pH 7.4) containing IBMX, and 10 μM forskolin. Reactions were terminated by adding 50 μl 2.2N HCl and [^3H]cAMP was isolated by employing alumina column chromatography. Radioactivity contained in 4 ml of the final column eluate was counted by a Packard-Tri-carb 2100/TR liquid scintillation counter after adding 10 ml of liquid scintillation cocktail.
To determine if modulation of adenylyl cyclase activity by SERMs was mediated through CB2 receptors coupling to Gi/o proteins, additional cAMP assays were conducted following overnight treatment with pertussis toxin as described elsewhere. Briefly, CHO-hCB2 cells were seeded into 24-well plates as described above in normal culture media containing 100 ng/ml of pertussis toxin and incubated overnight at 37°C. Pertussis toxin-treated media was removed and measurement of intracellular [^3H]cAMP levels following indicated SERM treatments was conducted as described above.
(§2) Data presented are expressed as mean ± standard error of the mean (S.E.M.) for a minimum of three experiments, each performed in triplicate. GraphPad Prism version 6.0f (GraphPad Software Inc.) was used for all curve-fitting and statistical analyses. Non-linear regression for one-site competition was used to determine the IC50 for competition receptor binding. IC50 values were subsequently converted to Ki values (a measure of receptor affinity) by the Cheng-Prusoff equation [31]. Non-linear regression was also used to analyze concentration-effect curves to determine the EC50 or IC50 (measures of potency) and Emax or Imax (measures of efficacy) for GTPγS binding and adenylyl cyclase experiments, respectively. All dissociation constants and measurements of potency were converted to pKi, pKB, pEC50, or pIC50 values by taking the negative log of each value so that parametric tests could be used for statistical comparisons. To compare three or more groups, statistical significance of the data was determined by a one-way ANOVA, followed by post hoc comparisons using a Tukey's or Dunnett's test. To compare two groups, the non-paired Student's t-test was used.

A further experiment deals with ERs. The following applies: ref [23], [24]; cited from earlier work.
In experiment [3] the target is T2, hCB1 receptors (Homo sapiens, UniProt P21554). Kind of experiment: Competition receptor binding with [3H]CP-55,940, CHO-hCB1 membranes. The note with it: for Ki: [3H]CP-55,940 binding, CHO-hCB1, 0.2 nM [3H]CP-55,940, CHO-hCB1 membranes; for Selectivity (CB1/CB2): ratio hCB1-Ki/hCB2-Ki. As to the method:
as §1
(§3) Competition receptor binding was performed as reported earlier. […] The total volume of the incubation mixture was 1 ml. All reactions were mixed and allowed to reach equilibrium binding by incubation at room temperature for 90 min. […] Binding was terminated by rapid vacuum filtration through glass fiber filters (Brandel, Gaithersburg, MD), followed by four 5 ml washes of ice-cold 50 mM Tris-HCl (pH 7.4) buffer containing 0.1% bovine serum albumin. Four ml of scintiverse scintillation fluid (Fisher Scientific, Waltham, MA) was added to the filters and the amount of radioactivity was quantified 24 hr later utilizing liquid scintillation spectrophotometry.
as §2

Experiment [4] concerns the target T1, hCB2 receptors. Kind of experiment: Competition receptor binding with [3H]CP-55,940, CHO-hCB2 membranes. The following applies: [3H]CP-55,940 binding, CHO-hCB2, 0.2 nM [3H]CP-55,940, CHO-hCB2 membranes. As to the method:
as §1, §3, §2

In experiment [5] the target is T2, hCB1 receptors. Kind of experiment: Antagonism of CP-55,940 inhibition of AC activity in intact CHO-hCB1 cells. Type of experiment: cell-based. The note with it: for Type of antagonism of CP-55,940 / IMAX of CP-55,940, intracellular [3H]cAMP: CHO-hCB1 cells; for Kb: read-out: Kb (antagonist dissociation constant); for IMAX of CP-55,940, intracellular [3H]cAMP: CP-55,940 alone or after pre-incubation with AM-281 1 μM, Z-Tam 30 μM, Z-4OHT 10 μM, Z-End 30 μM. As to the method:
(§4) After overnight seeding into 24-well plates and pre-incubation of cells with [^3H]adenine for 3–5 hr at 37°C as described above, media was removed and the indicated concentration of the SERM to be tested was added to all wells of the 24-well plate. […] Reactions were terminated and [^3H]cAMP isolated as described above.
as §2

Experiment [6] concerns the target T1, hCB2 receptors. As to the kind of experiment: Antagonism of CP-55,940 inhibition of AC activity in intact CHO-hCB2 cells. Type of experiment: cell-based. As to the method:
as §4, §2

The target of experiment [7] is T2, hCB1 receptors. As to the kind of experiment: [35S]GTPγS binding (G-protein activity), CHO-hCB1 membranes. It counts as biochemical. The following applies: read-out: IMAX, inhibition of basal [35S]GTPγS binding. As to the method: as §1
The GTPγS binding assay to measure G-protein activation was performed as previously described. Briefly, in a total volume of 1 ml, 25 μg of CHO-hCB2, 50 μg of CHO-hCB1-Rx or 50 μg of CHO-hMOR membranes homogenates were added to each reaction mixture containing 0.1 nM [^35S]GTPγS, 20 mM HEPES, 10 mM MgCl2, 100 mM NaCl, 10 μM GDP, 0.1% bovine serum albumin and the indicated concentrations of ligand to be examined. After mixing, reaction mixtures were incubated at 30°C for 30 min. […] Nonspecific binding was defined by the amount of radioactivity remaining in the presence of 10 μM non-radiolabeled GTPγS. Reactions were terminated by rapid vacuum filtration through glass fiber filters followed by four washes with ice cold 50 mM HEPES (pH 7.4) containing 0.1% bovine serum albumin. Four ml of scintiverse scintillation fluid (Fisher Scientific, Waltham, MA) was added to the filters and the amount of radioactivity was quantified 24 hr later utilizing liquid scintillation spectrophotometry.
as §2, with “All dissociation constants and measurements of potency were converted to pKi, pKB, pEC50, or pIC50 values by taking the negative log of each value so that parametric tests could be used for statistical comparisons.” left out, “To compare two groups, the non-paired Student's t-test was used.” left out
On the technique in general: GTPγS resists hydrolysis and so accumulates on activated G proteins.

Experiment [8] has as its target T3, human mu-opioid receptors (hMOR) (Homo sapiens, UniProt P35372).
T3 construct: expressed in transfected cells
Kind of experiment: [35S]GTPγS binding (G-protein activity), CHO-hMOR membranes. The note with it: 10 μM. It counts as biochemical. As to the method:
as §1, with “Membrane homogenates were divided into aliquots and stored at −80°C for future use.” left out
The GTPγS binding assay to measure G-protein activation was performed as previously described. […] Nonspecific binding was defined by the amount of radioactivity remaining in the presence of 10 μM non-radiolabeled GTPγS. […] Four ml of scintiverse scintillation fluid (Fisher Scientific, Waltham, MA) was added to the filters and the amount of radioactivity was quantified 24 hr later utilizing liquid scintillation spectrophotometry.
Data presented are expressed as mean ± standard error of the mean (S.E.M.) for a minimum of three experiments, each performed in triplicate. […]

These results are taken from PMC5147891 (PLoS ONE, 2016).

Where “and” joins values, the source holds several entries; their conditions need not be identical. Identical values can stand only once. Marks after values point to notes of the source that are not given here. Some results are limits rather than exact numbers.

T1 sequence (P34972 whole entry): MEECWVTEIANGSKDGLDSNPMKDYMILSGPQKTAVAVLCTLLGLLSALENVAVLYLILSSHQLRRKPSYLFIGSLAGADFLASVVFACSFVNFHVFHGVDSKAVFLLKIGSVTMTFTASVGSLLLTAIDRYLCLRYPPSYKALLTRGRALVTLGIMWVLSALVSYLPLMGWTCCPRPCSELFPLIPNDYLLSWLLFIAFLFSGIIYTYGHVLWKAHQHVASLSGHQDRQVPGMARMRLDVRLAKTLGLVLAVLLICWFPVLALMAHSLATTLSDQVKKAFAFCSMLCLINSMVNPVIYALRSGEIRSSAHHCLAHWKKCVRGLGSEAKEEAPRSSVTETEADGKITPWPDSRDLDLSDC
T2 sequence (P21554 whole entry): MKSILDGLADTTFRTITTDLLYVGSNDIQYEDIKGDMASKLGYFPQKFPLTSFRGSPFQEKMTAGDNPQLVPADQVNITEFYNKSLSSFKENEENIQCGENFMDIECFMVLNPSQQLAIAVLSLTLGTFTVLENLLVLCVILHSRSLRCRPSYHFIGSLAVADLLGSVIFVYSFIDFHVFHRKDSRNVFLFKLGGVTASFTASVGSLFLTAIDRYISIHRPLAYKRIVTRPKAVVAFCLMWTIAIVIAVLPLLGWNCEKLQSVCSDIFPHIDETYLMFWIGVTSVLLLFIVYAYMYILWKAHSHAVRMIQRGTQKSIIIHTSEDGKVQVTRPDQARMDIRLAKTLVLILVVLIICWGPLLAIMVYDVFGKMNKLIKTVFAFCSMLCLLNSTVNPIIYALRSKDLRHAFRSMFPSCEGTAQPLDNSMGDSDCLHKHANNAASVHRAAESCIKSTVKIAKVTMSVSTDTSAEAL
T3 sequence (P35372 whole entry): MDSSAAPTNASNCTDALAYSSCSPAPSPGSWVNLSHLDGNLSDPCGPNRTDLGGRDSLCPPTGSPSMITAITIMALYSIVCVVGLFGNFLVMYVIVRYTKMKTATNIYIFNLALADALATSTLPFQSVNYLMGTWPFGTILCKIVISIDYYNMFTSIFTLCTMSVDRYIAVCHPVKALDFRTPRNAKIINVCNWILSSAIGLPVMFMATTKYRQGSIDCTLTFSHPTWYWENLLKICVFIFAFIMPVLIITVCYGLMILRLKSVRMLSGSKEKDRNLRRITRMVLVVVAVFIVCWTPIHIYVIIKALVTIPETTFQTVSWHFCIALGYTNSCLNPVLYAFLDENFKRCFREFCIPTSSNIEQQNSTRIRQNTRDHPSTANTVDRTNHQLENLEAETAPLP

In the case of `CC/C(=C(\c1ccccc1)c1ccc(OCCN(C)C)cc1)c1ccccc1` [E-Tam, tamoxifen], the “IMAX, decrease in basal G-protein activity ([35S]GTPγS binding)” value at hCB2 receptors [1] is 49.7 ± 1.5%. For the same compound, the “EMAX, intracellular [3H]cAMP” value at hCB2 receptors [2] is 464 ± 48^a^, ^†† %. Besides, the “Functional activity at ERs” value with ERs was “ER agonist”.

What is called Ki is the dissociation constant of the complex between target and ligand, obtained from inhibition or displacement. The low end stands for higher affinity, the high end for lower affinity. As a reminder, the EC50 is the concentration giving half of the maximal effect. By Kb is commonly meant the equilibrium dissociation constant of an antagonist, usually derived from a functional assay. `CC/C(=C(\c1ccc(O)cc1)c1ccc(OCCN(C)C)cc1)c1ccccc1` [Z-4OHT, 4-hydroxytamoxifen]: the inhibitory constant (Ki) at hCB1 receptors [3] came to 681 nM; at hCB2 receptors [4], 495 nM. Further, at hCB1 receptors [3], the “Selectivity (CB1/CB2)” value was 1.38. Moreover, the “EMAX, intracellular [3H]cAMP” value on hCB2 receptors [2] is reported as 323 ± 37^a^,^b %. This compound registered an EC50 on hCB2 receptors [2] of 4900 nM. Moreover, the “Type of antagonism of CP-55,940” value on hCB1 receptors [5] and on hCB2 receptors [6] was “surmountable antagonism” each time. In addition, the Kb was 4680 nM at hCB1 receptors [5]; 856 nM and 851 nM at hCB2 receptors [6] (against CP-55,940, AM-630 1 μM, Z-Tam 10 μM, Z-4OHT 10 μM, read-out: Kb (antagonist dissociation constant)).

As for `CC/C(=C(\c1ccc(O)cc1)c1ccc(OCCNC)cc1)c1ccccc1` [Z-End, 4-hydroxy-N-desmethyl tamoxifen], on hCB1 receptors [3], the affinity, expressed as Ki, was 1160 nM and the “Selectivity (CB1/CB2)” value is reported as 0.49^††. Further, the inhibition constant Ki at hCB2 receptors [4] was 2390 nM. Further, at hCB2 receptors [2], the “EMAX, intracellular [3H]cAMP” value is 259 ± 18^b % and a half-maximal effect (EC50) was put at 11500 nM. For the same compound, on hCB1 receptors [5], the “Type of antagonism of CP-55,940” value is given as “surmountable antagonism” and the antagonist equilibrium constant (Kb) turned out to be 2570 nM. In addition, the “Type of antagonism of CP-55,940” value at hCB2 receptors [6] is on record as “insurmountable”. Further, the “Shift-to-the-right in potency (IC50) of CP-55,940” value at hCB2 receptors [6] (Z-End 30 μM) is listed as more than 8 fold.

By inhibition is commonly meant the share of the control response that was lost under treatment. Turning to `CC/C(=C(\c1ccccc1)c1ccc(OCCN(C)C)cc1)c1ccccc1` [Z-Tam, tamoxifen], on hCB1 receptors [7], the inhibition at 10 µM was found to be 50.8 ± 2.7%. In addition, the “IMAX, decrease in basal G-protein activity ([35S]GTPγS binding)” value on hCB2 receptors [1] is reported as 65.1± 3.0%. In addition, the “Decrease in [35S]GTPγS binding” value in experiment [8] was found to be 11.3%. In addition, on hCB2 receptors [2], the “EMAX, intracellular [3H]cAMP” value is reported as 374 ± 24^a^,^b^, ^††† %. Besides, the “Type of antagonism of CP-55,940” value on hCB1 receptors [5] is reported as “insurmountable”; on hCB2 receptors [6] it was “surmountable antagonism”. In addition, the “IMAX of CP-55,940, intracellular [3H]cAMP” value is reported as 23.0% on hCB1 receptors [5]; 23.0 ± 0.5^b % on hCB1 receptors [5] (listed as +Z-Tam); 32.3 ± 0.7^a % on hCB2 receptors [6] (CP-55,940 alone or after pre-incubation with AM-630 1 μM, Z-Tam 10 μM, Z-4OHT 10 μM, Z-End 30 μM). Moreover, the “Functional activity at ERs” value with ERs is “ER antagonist”.
